Five molecules from patent US9474790B2, “Stable, protracted GLP-1/glucagon receptor co-agonists for medical use” (Novo Nordisk A/S, priority 2013, dated 2016) can be followed below.

Numbered stars: 1 amine (or outer) side, 2 acyl side, 3 side chain; on linkers, the order of the positions; unused ones are H or OH. Bridge positions count the residues as written; N and C are the ends. Square brackets hold non-standard residues; d marks the D form. Side chains are listed from the residue outwards. Peptide text beside a SMILES is read from it. I, II: the chains in the order shown. * marks the point of attachment. C18 diacid = O=C(O)CCCCCCCCCCCCCCCCC(=O)*; γGlu = O=C(O)[C@H](CCC(=O)[*:2])N[*:1]; Ac4c = NC1(C(=O)O)CCC1; AEEA = NCCOCCOCC(=O)O; Aib = CC(C)(N)C(=O)O

In this assay the target is T1, human glucagon receptor (Homo sapiens, UniProt P47871).
T1 construct: expressed in transfected cells; host or cells: BHK cells (parent BHK570, CRE luciferase clone BHK/KZ10-20-48), clone pLJ6'-4-25
T1 sequence (P47871 26-477): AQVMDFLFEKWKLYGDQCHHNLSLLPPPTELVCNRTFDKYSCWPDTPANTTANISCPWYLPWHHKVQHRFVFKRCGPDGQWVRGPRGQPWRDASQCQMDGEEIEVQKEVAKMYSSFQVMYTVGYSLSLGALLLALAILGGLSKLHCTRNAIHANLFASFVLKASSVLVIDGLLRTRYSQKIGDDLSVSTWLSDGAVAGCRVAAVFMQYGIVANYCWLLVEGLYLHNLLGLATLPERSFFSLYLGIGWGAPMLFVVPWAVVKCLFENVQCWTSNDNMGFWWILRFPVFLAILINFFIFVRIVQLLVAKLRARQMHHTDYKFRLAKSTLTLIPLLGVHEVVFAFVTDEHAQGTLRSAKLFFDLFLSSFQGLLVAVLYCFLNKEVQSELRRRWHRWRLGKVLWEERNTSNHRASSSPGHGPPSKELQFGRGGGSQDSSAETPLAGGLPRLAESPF
As to the kind of experiment: Glucagon receptor potency, CRE luciferase reporter gene assay in BHK cells. Format: cell-based. The settings on record: BHK cells expressing human glucagon receptor, read-out: EC50 GlucR. The procedure, abridged:
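EC50 (pM) comes from a four-parameter fit of luciferase luminescence after 3 h at 37 °C with compound at final 1×10EE-13–1×10EE-6 M. Cells: BHK570-derived line carrying human glucagon receptor plus CRE-luciferase, 5×10EE3/well, in assay medium with 2% ovalbumin, 0.2% Pluronic F-68.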
Background: Reporter assays use an easily measured gene product as a stand-in for the process of interest.

In general, EC50 refers to the concentration needed to bring the measured effect to its halfway point. Consider `CC(C)C[C@H](NC(=O)[C@H](Cc1ccc(O)cc1)NC(=O)[C@H](CCCCN)NC(=O)[C@H](CO)NC(=O)[C@H](CC(C)C)NC(=O)[C@H](CC(=O)O)NC(=O)[C@H](CO)NC(=O)[C@@H](NC(=O)[C@H](Cc1ccccc1)NC(=O)[C@@H](NC(=O)CNC(=O)[C@H](CCC(N)=O)NC(=O)C(C)(C)NC(=O)[C@@H](N)Cc1c[nH]cn1)[C@@H](C)O)[C@@H](C)O)C(=O)N[C@@H](CCC(=O)O)C(=O)N[C@@H](CO)C(=O)N[C@@H](CCCNC(=N)N)C(=O)N[C@@H](CCCNC(=N)N)C(=O)N[C@@H](C)C(=O)N[C@@H](CCCNC(=N)N)C(=O)N[C@@H](CCC(=O)O)C(=O)N[C@@H](Cc1ccccc1)C(=O)N[C@H](C(=O)N[C@@H](CCC(N)=O)C(=O)N[C@@H](Cc1c[nH]c2ccccc12)C(=O)N[C@@H](CC(C)C)C(=O)N[C@@H](CC(C)C)C(=O)N[C@@H](CCCCNC(=O)CC[C@H](NC(=O)CC[C@H](NC(=O)COCCOCCNC(=O)COCCOCCNC(=O)CC[C@H](NC(=O)CCCCCCCCCCCCCCCCC(=O)O)C(=O)O)C(=O)O)C(=O)O)C(=O)N[C@H](C(N)=O)[C@@H](C)O)C(C)C` [Example 23, N^ε28-[(4S)-4-carboxy-4-[[(4S)-4-carboxy-4-[[2-[2-[2-[[2-[2-[2-[[(4S)-4-carboxy-4-(17-carboxyheptadecanoylamino)butanoyl]amino]ethoxy]ethoxy]acetyl]amino]ethoxy]ethoxy]acetyl]amino]butanoyl]amino]butanoyl]-[Aib2,Leu10,Glu15,Arg20,Glu21,Leu27,Lys28]-Glucagon amide] (H-H[Aib]QGTFTSDLSKYLESRRAREFVQWLLK([γGlu-γGlu-AEEA-AEEA-γGlu-C18 diacid])T-NH2; N-terminus assumed), for which the EC50 is 77.3 pM. Turning to `CC(C)C[C@H](NC(=O)[C@H](Cc1ccc(O)cc1)NC(=O)[C@H](CCCCN)NC(=O)[C@H](CO)NC(=O)[C@H](CC(C)C)NC(=O)[C@H](CC(=O)O)NC(=O)[C@H](CO)NC(=O)[C@@H](NC(=O)[C@H](Cc1ccccc1)NC(=O)[C@@H](NC(=O)CNC(=O)[C@H](CCC(N)=O)NC(=O)C(C)(C)NC(=O)[C@@H](N)Cc1c[nH]cn1)[C@@H](C)O)[C@@H](C)O)C(=O)N[C@@H](CCC(=O)O)C(=O)N[C@@H](CO)C(=O)N[C@@H](CCCCN)C(=O)N[C@@H](CCCNC(=N)N)C(=O)N[C@@H](C)C(=O)N[C@@H](CCCNC(=N)N)C(=O)N[C@@H](CCC(=O)O)C(=O)N[C@@H](Cc1ccccc1)C(=O)N[C@H](C(=O)N[C@@H](CCC(N)=O)C(=O)N[C@@H](Cc1c[nH]c2ccccc12)C(=O)N[C@@H](CC(C)C)C(=O)N[C@@H](CC(C)C)C(=O)N[C@@H](CCCCNC(=O)CNC(=O)[C@H](CO)NC(=O)[C@H](CCC(=O)O)NC(=O)CNC(=O)[C@H](CO)NC(=O)CC[C@H](NC(=O)CC[C@H](NC(=O)CCCCCCCCCCCCCCCCC(=O)O)C(=O)O)C(=O)O)C(=O)N[C@H](C(N)=O)[C@@H](C)O)C(C)C` [Example 25, N^ε28-[2-[[(2S)-2-[[(2S)-4-carboxy-2-[[2-[[(2S)-2-[[(4S)-4-carboxy-4-[[(4S)-4-carboxy-4-(17-carboxyheptadecanoylamino)butanoyl]amino]butanoyl]amino]-3-hydroxypropanoyl]amino]acetyl]amino]butanoyl]amino]-3-hydroxypropanoyl]amino]acetyl]-[Aib2,Leu10,Glu15,Lys17,Arg20,Glu21,Leu27,Lys28]-Glucagon amide] (I: H-H[Aib]QGTFTSDLSKYLESKRAREFVQWLLKT-NH2 / II: {C18 diacid-γGlu-γGlu}-SGESG; amide I:28-II:C; N-terminus assumed), the EC50 was found to be 44.7 pM. Consider `CC(C)C[C@H](NC(=O)[C@H](Cc1c[nH]c2ccccc12)NC(=O)[C@H](C)NC(=O)[C@@H](NC(=O)[C@H](Cc1ccccc1)NC(=O)[C@H](CCC(=O)O)NC(=O)[C@H](CCCNC(=N)N)NC(=O)[C@H](C)NC(=O)[C@H](CCCNC(=N)N)NC(=O)[C@H](CCCNC(=N)N)NC(=O)[C@H](CO)NC(=O)[C@H](CCC(=O)O)NC(=O)[C@H](CC(C)C)NC(=O)[C@H](Cc1ccc(O)cc1)NC(=O)[C@H](CCCCN)NC(=O)[C@H](CO)NC(=O)[C@H](CC(C)C)NC(=O)[C@H](CC(=O)O)NC(=O)[C@H](CO)NC(=O)[C@@H](NC(=O)[C@H](Cc1ccccc1)NC(=O)[C@@H](NC(=O)CNC(=O)[C@H](Cc1c[nH]cn1)NC(=O)C(C)(C)NC(=O)[C@@H](N)Cc1c[nH]cn1)[C@@H](C)O)[C@@H](C)O)C(C)C)C(=O)N[C@@H](CC(C)C)C(=O)N[C@@H](CCCCNC(=O)CC[C@H](NC(=O)COCCOCCNC(=O)COCCOCCNC(=O)CC[C@H](NC(=O)CC[C@H](NC(=O)CCCCCCCCCCCCCCCCC(=O)O)C(=O)O)C(=O)O)C(=O)O)C(=O)N[C@H](C(N)=O)[C@@H](C)O` [Example 31, N^ε28-[(4S)-4-carboxy-4-[[2-[2-[2-[[2-[2-[2-[[(4S)-4-carboxy-4-[[(4S)-4-carboxy-4-(17-carboxyheptadecanoylamino)butanoyl]amino]butanoyl]amino]ethoxy]ethoxy]acetyl]amino]ethoxy]ethoxy]acetyl]amino]butanoyl]-[Aib2,His3,Leu10,Glu15,Arg20,Glu21,Ala24,Leu27, Lys28]-Glucagon amide] (H-H[Aib]HGTFTSDLSKYLESRRAREFVAWLLK([γGlu-AEEA-AEEA-γGlu-γGlu-C18 diacid])T-NH2; N-terminus assumed), for which the EC50 was found to be 2.9 pM. Turning to `CC(C)C[C@H](NC(=O)[C@H](Cc1ccc(O)cc1)NC(=O)[C@H](CCCCN)NC(=O)[C@H](CO)NC(=O)[C@H](CC(C)C)NC(=O)[C@H](CC(=O)O)NC(=O)[C@H](CO)NC(=O)[C@@H](NC(=O)[C@H](Cc1ccccc1)NC(=O)[C@@H](NC(=O)CNC(=O)[C@H](Cc1c[nH]cn1)NC(=O)C(C)(C)NC(=O)[C@@H](N)Cc1c[nH]cn1)[C@@H](C)O)[C@@H](C)O)C(=O)N[C@@H](CCC(=O)O)C(=O)N[C@@H](CO)C(=O)N[C@@H](CCCCN)C(=O)N[C@@H](CCCNC(=N)N)C(=O)N[C@@H](C)C(=O)N[C@@H](CCCNC(=N)N)C(=O)N[C@@H](CCC(=O)O)C(=O)N[C@@H](Cc1ccccc1)C(=O)N[C@H](C(=O)N[C@@H](CCC(N)=O)C(=O)N[C@@H](Cc1c[nH]c2ccccc12)C(=O)N[C@@H](CC(C)C)C(=O)N[C@@H](CC(C)C)C(=O)N[C@@H](CCCCNC(=O)CC[C@H](NC(=O)CC[C@H](NC(=O)CC[C@H](NC(=O)CCCCCCCCCCCCCCCCC(=O)O)C(=O)O)C(=O)O)C(=O)O)C(=O)N[C@H](C(N)=O)[C@@H](C)O)C(C)C` [Example 34, N^ε28-[(4S)-4-carboxy-4-[[(4S)-4-carboxy-4-[[(4S)-4-carboxy-4-(17-carboxyheptadecanoylamino)butanoyl]amino]butanoyl]amino]butanoyl]-[Aib2,His3,Leu10,Glu15,Lys17,Arg20,Glu21,Leu27,Lys28]-Glucagon amide] (H-H[Aib]HGTFTSDLSKYLESKRAREFVQWLLK([γGlu-γGlu-γGlu-C18 diacid])T-NH2; N-terminus assumed), the EC50 amounted to 2.9 pM.

With `CC(C)C[C@H](NC(=O)[C@H](Cc1ccc(O)cc1)NC(=O)[C@H](CCCCN)NC(=O)[C@H](CO)NC(=O)[C@H](CC(C)C)NC(=O)[C@H](CC(=O)O)NC(=O)[C@H](CO)NC(=O)[C@@H](NC(=O)[C@H](Cc1ccccc1)NC(=O)[C@@H](NC(=O)CNC(=O)[C@H](CCC(N)=O)NC(=O)C1(NC(=O)[C@@H](N)Cc2c[nH]cn2)CCC1)[C@@H](C)O)[C@@H](C)O)C(=O)N[C@@H](CCC(=O)O)C(=O)N[C@@H](CO)C(=O)N[C@@H](CCCCN)C(=O)N[C@@H](CCCNC(=N)N)C(=O)N[C@@H](C)C(=O)N[C@@H](CCCNC(=N)N)C(=O)N[C@@H](CCC(=O)O)C(=O)N[C@@H](Cc1ccccc1)C(=O)N[C@H](C(=O)N[C@@H](CCC(N)=O)C(=O)N[C@@H](Cc1c[nH]c2ccccc12)C(=O)N[C@@H](CC(C)C)C(=O)N[C@@H](CC(C)C)C(=O)N[C@@H](CCCCNC(=O)CNC(=O)[C@H](CO)NC(=O)[C@H](CCC(=O)O)NC(=O)CNC(=O)[C@H](CO)NC(=O)CC[C@H](NC(=O)CC[C@H](NC(=O)CCCCCCCCCCCCCCCCC(=O)O)C(=O)O)C(=O)O)C(=O)N[C@H](C(N)=O)[C@@H](C)O)C(C)C` [Example 36, N^ε28-[2-[[(2S)-2-[[(2S)-4-carboxy-2-[[2-[[(2S)-2-[[(4S)-4-carboxy-4-[[(4S)-4-carboxy-4-(17-carboxyheptadecanoylamino)butanoyl]amino]butanoyl]amino]-3-hydroxypropanoyl]amino]acetyl]amino]butanoyl]amino]-3-hydroxypropanoyl]amino]acetyl]-[Acb2,Leu10,Glu15,Lys17, Arg20,Glu21,Leu27,Lys28]-Glucagon amide] (I: H-H[Ac4c]QGTFTSDLSKYLESKRAREFVQWLLKT-NH2 / II: {C18 diacid-γGlu-γGlu}-SGESG; amide I:28-II:C; N-terminus assumed), the EC50 turned out to be 4 pM.
